Biological target: T1, mouse TRPV2 (Mus musculus, UniProt Q9WTR1)
T1 construct: expressed in transfected cells; host or cells: HEK293
T1 sequence (Q9WTR1 1-756): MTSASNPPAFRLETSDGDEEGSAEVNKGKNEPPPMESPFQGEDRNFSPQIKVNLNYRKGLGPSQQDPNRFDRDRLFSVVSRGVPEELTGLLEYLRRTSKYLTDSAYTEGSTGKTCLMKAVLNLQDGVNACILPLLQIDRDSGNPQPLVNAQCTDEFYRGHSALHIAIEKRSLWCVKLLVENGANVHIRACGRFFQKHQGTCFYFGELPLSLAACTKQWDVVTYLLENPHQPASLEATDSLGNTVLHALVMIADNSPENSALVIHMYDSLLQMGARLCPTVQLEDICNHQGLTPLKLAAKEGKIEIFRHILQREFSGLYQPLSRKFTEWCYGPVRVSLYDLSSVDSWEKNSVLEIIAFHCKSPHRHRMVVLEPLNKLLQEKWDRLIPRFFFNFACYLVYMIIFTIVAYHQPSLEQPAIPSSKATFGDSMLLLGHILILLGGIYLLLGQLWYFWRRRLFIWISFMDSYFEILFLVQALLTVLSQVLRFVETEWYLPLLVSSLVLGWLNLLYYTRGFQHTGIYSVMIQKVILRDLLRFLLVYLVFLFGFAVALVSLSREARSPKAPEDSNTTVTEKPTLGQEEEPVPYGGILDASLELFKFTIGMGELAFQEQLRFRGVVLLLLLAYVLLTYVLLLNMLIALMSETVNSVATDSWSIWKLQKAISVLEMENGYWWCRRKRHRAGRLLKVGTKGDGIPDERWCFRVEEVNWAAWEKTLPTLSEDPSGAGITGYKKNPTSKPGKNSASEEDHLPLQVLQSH
Experiment: fluo-4 Ca2+ assay selectivity, HEK cells expressing mouse TRPV2
Type: cell-based
Settings: concentrations up to 50 μM
Text: KU-19-19 (DSMZ no. ACC 395), CAL-29 (DSMZ no. ACC 515), 647-V (DSMZ no. ACC 414), RT-4 (DSMZ no. ACC 412), and RT-112 (DSMZ no. ACC 418) bladder cancer cell lines were obtained from the Leibniz Institute DSMZ (German Collection of Microorganisms and Cell Cultures). Human TRPV3 (NM_145068, purchased from OriGene) and mouse TRPV3 (NM_001371006), rat TRPV1, mouse TRPV2, mouse TRPV4, human TRPM2, human TRPM8, and human TRPA1 were stably transfected in HEK293 cells as described before.[27] […]
All fluorometric Ca^2+ assays were performed in HBS buffer at room temperature. […] For the primary compound screening and the generation of concentration-response analyses, a robotic liquid handling station (Freedom Evo 150; Tecan) with a built-in custom-made fluorescence plate imager was used. […] Fluorescence was excited using a 470-nm light-emitting diode, and emitted light was imaged through a 515-nm–long pass filter with a cooled Zyla 5.5 camera (Andor). Fluorescence was recorded and processed under the control of the μ-Manager 2.0 gamma software (https://micro-manager.org.[28]). After recording baseline fluorescence, compounds were dispensed into the wells via the liquid handling device. […] For further analysis, fluorescence signals were calculated for each well, corrected for background intensities and normalized to the initial signals. […]

effect on TRPV2: no effect
Compound: COC(=O)C12CN(Cc3ccccc3)CC1(C(=O)OC)CN(Cc1ccccc1)C2 (stereo not shown) [AV3-1]

From publication PMC12881674, “Activation of TRPV3 channels in bladder cancer cells stimulates ATP release” (Molecular Pharmacology, 2025)
